# Test results reported in the supplement of paper PMC10307832.
# Tests used:
# Assay in all cases: relative viability (nuclei count vs DMSO), 5 days (fraction); higher = more cells survive
# [1] = compound: C1=CC2=C(C=C(C(=C2N=C1)O)N=NC3=CC4=C(C=C3)C=C(C=C4)S(=O)(=O)O)S(=O)(=O)O + COc1cccc2cc(-c3nc([C@H]4CC[C@H](C(=O)O)CC4)n4ncnc(N)c34)[nH]c12 [OSI-027] (partner 0.5 µM)
# Summary of the method: (§1)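 Dosing by pin tool came one day after lung cancer cell lines were seeded in 1536-well plates, using either one drug or a fixed anchor-drug dose plus five library-drug doses (not always all listed) in √10 steps. After 5 days, nuclei were counted on 4× images. Relative viability is treated-well nuclei count divided by vehicle-well nuclei count, and values are medians of duplicate plates.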
# AT-7519 + Luminespib = compound: O=C(NC1CCNCC1)c1n[nH]cc1NC(=O)c1c(Cl)cccc1Cl [AT-7519] + CCNC(=O)c1noc(-c2cc(C(C)C)c(O)cc2O)c1-c1ccc(CN2CCOCC2)cc1 [Luminespib] (partner 0.01 µM)
# Summary of the method: as §1
# AT-7519 + Lapatinib = compound: O=C(NC1CCNCC1)c1n[nH]cc1NC(=O)c1c(Cl)cccc1Cl [AT-7519] + CS(=O)(=O)CCNCc1ccc(-c2ccc3ncnc(Nc4ccc(OCc5cccc(F)c5)c(Cl)c4)c3c2)o1 [Lapatinib] (partner 2 µM)
# Summary of the method: as §1
# AT-7519 + AZD7762 = compound: O=C(NC1CCNCC1)c1n[nH]cc1NC(=O)c1c(Cl)cccc1Cl [AT-7519] + NC(=O)Nc1cc(-c2cccc(F)c2)sc1C(=O)N[C@H]1CCCNC1 [AZD7762] (partner 0.2 µM)
# Summary of the method: as §1
Cell Line,relative viability ([1]; first compound 0.08 µM),relative viability ([1]; first compound 0.253 µM),relative viability ([1]; first compound 0.8 µM),relative viability ([1]; first compound 2.53 µM),relative viability ([1]; first compound 8 µM),relative viability (AT-7519 + Luminespib; first compound 0.01 µM),relative viability (AT-7519 + Luminespib; first compound 0.03162 µM),relative viability (AT-7519 + Luminespib; first compound 0.3162 µM),relative viability (AT-7519 + Luminespib; first compound 1 µM),relative viability (AT-7519 + Lapatinib; first compound 0.01 µM),relative viability (AT-7519 + Lapatinib; first compound 0.03162 µM),relative viability (AT-7519 + Lapatinib; first compound 0.3162 µM),relative viability (AT-7519 + Lapatinib; first compound 1 µM),relative viability (AT-7519 + AZD7762; first compound 0.01 µM),relative viability (AT-7519 + AZD7762; first compound 0.03162 µM),relative viability (AT-7519 + AZD7762; first compound 0.3162 µM),relative viability (AT-7519 + AZD7762; first compound 1 µM)
LXF-289,0.84,0.733,0.745,0.809,0.788,0.557,0.724,0.697,0.5,0.929,0.902,0.953,0.912,1.1,1.14,1.1,1.23
NCI-H23,0.619,0.585,0.637,0.654,0.603,0.224,0.236,0.183,0.146,0.955,0.975,0.919,0.218,0.258,0.262,0.242,0.309
NCI-H322M,0.651,0.501,0.513,0.586,0.509,0.893,0.824,0.462,0.305,0.648,0.606,0.525,0.67,0.534,0.533,0.578,0.639
NCI-H358,0.94,0.738,0.746,0.772,0.847,0.326,0.267,0.24,0.224,0.406,0.447,0.335,0.198,0.423,0.558,0.521,0.37
NCI-H460,0.777,0.71,0.654,0.647,0.576,0.0297,0.0263,0.0291,0.0206,1.71,0.877,0.0532,0.013,0.665,0.653,1.02,0.693
NCI-H596,0.812,0.653,0.613,0.695,0.663,0.988,1,0.846,0.827,1.05,1.11,1.02,0.767,1.22,1.06,0.982,0.938
NCI-H647,0.68,0.636,0.603,0.75,0.73,0.209,0.244,0.148,0.0855,1.02,1,0.937,0.291,0.353,0.481,0.552,0.361
NCI-H650,0.546,0.511,0.499,0.494,0.293,0.75,0.7,0.838,0.611,0.923,0.841,0.781,0.75,1.07,0.953,0.887,1.29
NCI-H727,0.623,0.549,0.54,0.592,0.578,0.343,0.339,0.279,0.24,0.641,0.82,0.486,0.235,0.571,0.494,0.604,0.414
NCI-H838,0.373,0.464,0.354,0.409,0.392,0.239,0.292,0.276,0.13,1.05,0.815,0.124,0.0875,0.925,0.949,0.936,0.861
NCI-H1355,0.386,0.46,0.423,0.459,0.452,0.87,0.621,0.564,0.578,0.959,0.911,1.12,0.989,0.71,0.703,0.902,0.907
NCI-H1395,0.639,0.663,0.631,0.632,0.657,0.606,0.648,0.665,0.508,1.03,1.14,0.802,0.602,0.359,0.391,0.425,0.348
NCI-H1437,0.93,0.899,0.889,0.961,0.813,1.17,1.2,1.09,0.745,0.77,0.71,0.514,0.22,0.989,1.09,1.07,0.982
NCI-H1651,0.631,0.661,0.668,0.75,0.743,0.882,0.675,0.614,0.607,0.862,0.784,0.607,0.534,0.531,0.49,0.536,0.561
NCI-H1666,0.897,0.838,0.793,0.827,0.847,1.06,0.943,0.988,0.585,0.657,0.579,0.327,0.347,0.852,0.818,0.917,0.863
NCI-H1734,0.632,0.602,0.573,0.586,0.349,0.2,0.174,0.164,0.0866,0.893,1.03,0.928,0.427,0.519,0.493,0.655,0.453
